Measurements published in the supplement of paper PMC10307832.

Key:
Experiment in all cases: relative viability (nuclei count vs DMSO), 5 days (fraction); higher = more cells survive
[1] = compound: C1CNCCC1C2=CC(=NN2)C3=CC=NC=C3 + CC(C)C[C@H](NC(=O)[C@H](Cc1ccccc1)NC(=O)c1cnccn1)B(O)O [Bortezomib] (partner 0.002 µM)
Method in brief: (§1)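 Lung cancer cell lines were seeded in 1536-well plates and dosed by pin tool the next day, with either a single drug or a fixed anchor-drug dose combined with five library-drug doses (not always all listed) spaced in √10 steps. Five days later, one step fixed the cells and stained their nuclei (final 0.05% Triton X-100, 1% formaldehyde, 1 ug/ml Hoechst), and nuclei were counted on 4× images. Relative viability is the nuclei count in treated wells divided by the count in vehicle wells, and each value is the median of duplicate plates.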

[2] = compound: C1CNCCC1C2=CC(=NN2)C3=CC=NC=C3 + N=C(N)NC(=N)NCCc1ccccc1 [Phenformin] (partner 250 µM)
Method in brief: as §1

Tanzisertib + Dasatinib = compound: O[C@H]1CC[C@H](Nc2ncc3nc(Nc4c(F)cc(F)cc4F)n([C@H]4CCOC4)c3n2)CC1 [Tanzisertib] + Cc1nc(Nc2ncc(C(=O)Nc3c(C)cccc3Cl)s2)cc(N2CCN(CCO)CC2)n1 [Dasatinib] (partner 0.075 µM)
Method in brief: as §1

[3] = compound: C1CNCCC1C2=CC(=NN2)C3=CC=NC=C3 + C[C@]1(O)C[C@@H](c2nc(-c3ccc4ccc(-c5ccccc5)nc4c3)c3c(N)nccn32)C1 [Linsitinib] (partner 1 µM)
Method in brief: as §1

In the case of ChaGo-K-1, the relative viability ([1]; first compound 0.08 µM) is reported as 0.991, the relative viability ([1]; first compound 0.8 µM) is reported as 1.31 and the relative viability ([1]; first compound 2.53 µM) is reported as 1.02. For the same cell line, the relative viability ([1]; first compound 8 µM) was 0.984, the relative viability ([2]; first compound 0.08 µM) was 0.458 and the relative viability ([2]; first compound 0.8 µM) was 0.527. It also gave a relative viability ([2]; first compound 2.53 µM) of 0.462, a relative viability ([2]; first compound 8 µM) of 0.462 and a relative viability (Tanzisertib + Dasatinib; first compound 0.08 µM) of 0.647. For the same cell line, the relative viability (Tanzisertib + Dasatinib; first compound 0.253 µM) was 0.606, the relative viability (Tanzisertib + Dasatinib; first compound 0.8 µM) was 0.605 and the relative viability (Tanzisertib + Dasatinib; first compound 2.53 µM) was 0.533. It also gave a relative viability (Tanzisertib + Dasatinib; first compound 8 µM) of 0.59.

In the case of NCI-H2170, the relative viability ([2]; first compound 0.08 µM) is reported as 0.433, the relative viability ([2]; first compound 0.8 µM) is reported as 0.394 and the relative viability ([2]; first compound 2.53 µM) is reported as 0.456. For the same cell line, the relative viability ([2]; first compound 8 µM) was 0.441, the relative viability (Tanzisertib + Dasatinib; first compound 0.08 µM) was 0.625 and the relative viability (Tanzisertib + Dasatinib; first compound 0.253 µM) was 0.586. For the same cell line, the relative viability (Tanzisertib + Dasatinib; first compound 0.8 µM) was 0.574, the relative viability (Tanzisertib + Dasatinib; first compound 2.53 µM) was 0.568 and the relative viability (Tanzisertib + Dasatinib; first compound 8 µM) was 0.512.

A549 gave a relative viability ([3]; first compound 0.08 µM) of 0.509, a relative viability ([3]; first compound 0.8 µM) of 0.556 and a relative viability ([3]; first compound 2.53 µM) of 0.696. It also gave a relative viability ([3]; first compound 8 µM) of 0.729, a relative viability ([2]; first compound 0.08 µM) of 0.107 and a relative viability ([2]; first compound 0.8 µM) of 0.153. It also gave a relative viability ([2]; first compound 2.53 µM) of 0.199 and a relative viability ([2]; first compound 8 µM) of 0.156.

Calu-6 showed a relative viability ([1]; first compound 0.08 µM) of 0.873, a relative viability ([1]; first compound 0.8 µM) of 1.13 and a relative viability ([1]; first compound 2.53 µM) of 1.17. It also gave a relative viability ([1]; first compound 8 µM) of 1.09, a relative viability ([3]; first compound 0.08 µM) of 0.877 and a relative viability ([3]; first compound 0.8 µM) of 0.941. It also gave a relative viability ([3]; first compound 2.53 µM) of 0.994 and a relative viability ([3]; first compound 8 µM) of 0.884.

NCI-H1623 was tested, and the relative viability ([2]; first compound 0.08 µM) was 0.6, the relative viability ([2]; first compound 0.8 µM) was 0.502 and the relative viability ([2]; first compound 2.53 µM) was 0.642. It also gave a relative viability ([2]; first compound 8 µM) of 0.637, a relative viability (Tanzisertib + Dasatinib; first compound 0.08 µM) of 0.59 and a relative viability (Tanzisertib + Dasatinib; first compound 0.253 µM) of 0.572. For the same cell line, the relative viability (Tanzisertib + Dasatinib; first compound 0.8 µM) was 0.608, the relative viability (Tanzisertib + Dasatinib; first compound 2.53 µM) was 0.455 and the relative viability (Tanzisertib + Dasatinib; first compound 8 µM) was 0.514.

HCC-44 gave a relative viability ([1]; first compound 0.08 µM) of 0.911, a relative viability ([1]; first compound 0.8 µM) of 0.93 and a relative viability ([1]; first compound 2.53 µM) of 1. The relative viability ([1]; first compound 8 µM) was 0.886, the relative viability ([3]; first compound 0.08 µM) was 0.66 and the relative viability ([3]; first compound 0.8 µM) was 0.595. It also gave a relative viability ([3]; first compound 2.53 µM) of 0.698, a relative viability ([3]; first compound 8 µM) of 0.684 and a relative viability ([2]; first compound 0.08 µM) of 0.31. For the same cell line, the relative viability ([2]; first compound 0.8 µM) was 0.194, the relative viability ([2]; first compound 2.53 µM) was 0.276 and the relative viability ([2]; first compound 8 µM) was 0.322.
